Results taken from US6518293B2, “Anti-HIV imidazolone derivatives” (Hoffmann-La Roche Inc., priority 2000, dated 2003).

Experiments:
[1] = biological target: HIV-1 RT (Human immunodeficiency virus type 1 group M subtype B, UniProt P04585); assay: HIV-1 Reverse Transcriptase Assay: Inhibitor IC50 Determination; type: biochemical; details: purified recombinant enzyme, poly(rA)/oligo(dT)16 template-primer
Protocol: Assay Method: HIV-1 Reverse Transcriptase Assay: Inhibitor IC50 Determination
HIV-1 RT assay was carried out in 96-well Millipore filtermat NOB50 plates using purified recombinant enzyme and a poly(rA)/oligo(dT)16 template-primer in a total volume of 50 μL. The assay constituents were 50 mM Tris/HCl, 50 mM NaCl, 1 mM EDTA, 6 mM MgCl2, 5 μM dTTP, 0.1 μCi [^3H] dTTP, 5 μg/ml poly (rA) pre annealed to 2.5 μg/ml oligo (dT)16 and a range of inhibitor concentrations in a final concentration of 10% DMSO. Reactions were initiated by adding 5 nM HIV-1 RT and after incubation at 37° C. for 30 min, they were stopped by the addition of 50 μl ice cold 20% TCA and allowed to precipitate at 4° C. for 30 min. The precipitates were collected by applying vacuum to the plate and sequentially washing with 2×200 μl of 10% TCA and 2×200 μl 70% ethanol. Finally the plates were dried and radioactivity counted in a Wallac Microbeta 1450 after the addition of 15 μl scintillation fluid per well. IC50's were calculated by plotting % inhibition versus log10 inhibitor concentrations.

[2] = tested on: HXB2-strain of HIV in MT4 cells; assay: Antiviral assay: protection of HIV-infected MT4 cells from cell death (MTT); type: cell-based; details: Human immunodeficiency virus 1; MT4 cells infected with HXB2-strain of HIV, MTT viability
Protocol: Anti-HIV antiviral activity was assessed using an adaptation of the method of Pauwels et al. {Pauwels et al., 1988, J Virol Methods 20:309-321}. The method is based on the ability of compounds to protect HIV-infected T lymphoblastoid cells (MT4 cells) from cell-death mediated by the infection. The endpoint of the assay was calculated as the concentration of compound at which the cell viability of the culture was preserved by 50% (‘50% inhibitory concentration’, IC50). The cell viability of a culture was determined by the uptake of soluble, yellow 3-[4,5-dimethylthiazol-2-yl]-2,5-diphenyltetrazolium bromide (MTT) and its reduction to a purple insoluble formazan salt. After solubilization, spectrophotometric methods were employed to measure the amount of formazan product.
MT4 cells were prepared to be in logarithmic-phase growth and a total of 2×10^6 cells infected with the HXB2-strain of HIV at a multiplicity of 0.0001 infectious units of virus per cell in a total volume of between 200-500 microlitres. The cells were incubated with virus for one h at 37° C. before removal of virus. The cells are then washed in 0.01 M phosphate buffered saline, pH 7.2 before being resuspensed in culture medium for incubation in culture with serial dilutions of test compound. The culture medium used was RPMI 1640 without phenol red, supplemented with penicillin, streptomycin, L-glutamine and 10% fetal calf serum (GM10).
Test compounds were prepared as 2 mM solutions in dimethyl sulphoxide (DMSO). Four replicate, serial 2-fold dilutions in GM10 were then prepared and 50 microlitres amounts placed in 96-well plates over a final nanomolar concentration range of 625-1.22. Fifty microlitres GM10 and 3.5×10^4 infected cells were then added to each well. Control cultures containing no cells (blank), uninfected cells (100% viability; 4 replicates) and infected cells without compound (total virus-mediated cell death; 4 replicates) were also prepared. The cultures were then incubated at 37° C. in a humidified atmosphere of 5% CO2 in air for […].
A fresh solution of 5 mg/ml MTT was prepared in 0.01 M phosphate buffered saline, pH 7.2 and 20 microlitres added to each culture. The cultures were further incubated as before for 2 h. They were then mixed by pipetting up and down and 170 microlitres of Triton X-100 in acidified isopropanol (10% v/v Triton X-100 in 1:250 mixture of concentrated HCl in isopropanol). When the formazan deposit was fully solubilized by further mixing, the absorbance (OD) of the cultures was measured at 540 nm and 690 nm wavelength (690 nm readings were used as blanks for artefacts between wells). The percent protection for each treated culture was then calculated from the equation: [formula]
The IC50 was then obtained from graph plots of percent protection versus log10 drug concentration.

Row | SMILES | IC50 [1] [nM] | IC50 [2] [nM]
1 | CC(C)n1c(Sc2cc(Cl)cc(Cl)c2)c(CNCc2ccncc2)n(C)c1=O | 90 | 7
2 | CC(C)n1c(Sc2cc(Cl)cc(Cl)c2)c(COCc2ccncc2)n(C)c1=O | 171 | 4
3 | CC(C)n1c(Sc2ccccc2)c(CNCc2ccncc2)n(C)c1=O | 520 | 32
4 | CC(C)n1c(Sc2ccccc2)c(CNCc2ccccc2)n(C)c1=O | 730 | 44
5 | CC(C)n1c(Oc2cc(Cl)cc(Cl)c2)c(CNCc2ccncc2)n(C)c1=O | 2400 | 108
6 | CC(C)n1c(Sc2cc(Cl)cc(Cl)c2)c(CCc2ccccc2)n(C)c1=O | 1160 | 
7 | CCC(C)Sc1c(CNCc2ccncc2)n(C)c(=O)n1C(C)C (centres unmarked) | 1910 | 
8 | COc1cccc(Sc2c(CNCc3ccncc3)n(C)c(=O)n2C(C)C)c1 | 3340 | 
9 | CC(C)n1c(Sc2cc(Cl)cc(Cl)c2)c(CO)n(C)c1=O | 10000 | 
10 | Cn1c(COCc2ccccc2)c(Sc2cc(Cl)cc(Cl)c2)n(-c2ccccc2)c1=O | 10000 | 
11 | CC(C)n1c(Sc2cc(Cl)cc(Cl)c2)c(/C=C/C#N)n(C)c1=O | 1920 | 
12 | CCn1c(Cc2ccncc2)c(Sc2cc(Cl)cc(Cl)c2)n(C(C)C)c1=O | 649 | 
13 | CC(C)n1c(Sc2cc(Cl)cc(Cl)c2)c(Cc2ccncc2)n(C)c1=O | 313 | 7
14 | CC(C)n1c(Sc2cc(Cl)cc(Cl)c2)c(COc2ccncc2)n(C)c1=O | 608 | 134
15 | CC(C)n1c(Sc2cc(Cl)cc(Cl)c2)c(COCc2cccnc2)n(C)c1=O | 115 | 5
